{"source": "patent US20250281465A1", "about": "“MOLECULES THAT ENHANCE EXTRACELLULAR VESICLE RELEASE” (priority 2022, published 2025)", "key": {"4T1 breast cancer": {"system": "4T1 breast cancer", "assay": "Murine lung metastasis models (4T1 breast cancer)", "format": "in vivo, mouse", "source_text": "Recent advances in cancer immunotherapy have improved patient survival. However, only a minority patients with pulmonary metastatic disease responds to treatment with checkpoint inhibitors. As an alternate approach, we have tested the ability of systemically administered 1V270, a toll-like receptor 7 (TLR7) agonist conjugated to a phospholipid, to inhibit lung metastases in two variant murine 4T1 breast cancer models, as well as in B16 melanoma, and Lewis lung c models."}, "mBMDCs [1]": {"system": "mBMDCs", "assay": "IL-12 induction in mBMDCs (ELISA)", "format": "cell-based, mouse", "details": "10 μM / dose response", "experimental": "(§1) All these analogs were evaluated for induction of IL-12 cytokine at 10 μM, followed by dose response IL-12 induction for selected analogs. These analogs were also evaluated for exosome release by quantitating EV release in the supernatant post 48 hours incubation with CD63-Tluc-CD9-EmGFP THP-1 reporter cells.\nmBMDCs (10^5 cells/200 μL/well) were plated in wells of 96-well plates and treated with test compound (5 μM or 10 μM) or vehicle (0.5% DMSO) overnight."}, "[2]": {"system": "CD63-Tluc-CD9-EmGFP THP-1 reporter cells", "assay": "CD63 Tluc-CD9 EmGFP THP-1 reporter cell assay (EV/exosome release)", "format": "cell-based, human", "details": "48 hours incubation", "experimental": "as §1\nIn the HTS using CD63-Tluc-CD9EmGFP reporter cells (CD63 HTS), PMA (10 ng/ml) was used as a positive control (Shpigelman et al., 2021) and 0.5% DMSO was used as negative control (vehicle, Veh). Briefly, the harvested cells were resuspended in assay media containing 10% exosome-depleted […] (#A2720801, Thermo Fisher Scientific) and plated at 2×10^5 cells/mL (50 μL/well of 384-well plates) (#3674, Corning). Test compounds were added at a final concentration of 10 μM to cells and incubated for 48 hours at 37° C. Subsequently, the plate was centrifuged, supernatant (25 μL) was transferred, and chemiluminescent was measured as recombinant luciferase activity (RLU) after 10 minutes incubation with TurboLuc assay reagent (TurboLuc™ One-Step Glow Assay kit, Thermo Fisher Scientific). The response that measures activation and subsequent release of EVs was calculated using the following formula; % response=100×(compound RLU−average Veh RLU)/(average PMA RLU−average Veh RLU). The viability of cells was assessed using PrestoBlue reagent (Thermo Fisher Scientific). Briefly, PrestoBlue reagent (2.5 μl) was added to the remaining cells and incubated for 30 minutes at room temperature, followed by fluorescence readout at (Ex 560 nm/Em 590 nm) which was normalized to fluorescence data of the Veh wells within the plate to obtain “% viability” calculated as 100×(compound fluorescence/average Veh fluorescence).\nCD63 Tluc-CD9 EmGFP THP-1 reporter cell assay. CD63 Tluc CD9 EmGFP THP-1 reporter cell (designated as CD63 Tluc reporter cells) were incubated with 10 μM test compounds, ION (1 μM), or 0.5% DMSO (negative control) in the RPMI 1640 supplemented with exosome-depleted FBS at 5×10^4 cells in 200 μL/well for a 96-well plate for 48 hours at 37° C. Subsequently, the plate was centrifuged, the supernatant was transferred, and chemiluminescence was measured by TurboLuc™ Luciferase One-Step Glow Assay Kit. The response that measures activation and subsequent release of EVs was calculated using the following formula; % response=100×(compound RLU−average Veh RLU)/(average PMA RLU−average Veh RLU)."}, "mBMDCs [3]": {"system": "mBMDCs", "assay": "Costimulatory molecule expression on mBMDCs (flow cytometry)", "format": "cell-based, mouse", "details": "634 10 μM, ION 1 μM, MPLA 1 μg/mL overnight, vs Veh", "experimental": "FIGS. 26A-26D. Flow cytometric analysis for costimulatory molecules on mBMDCs. For costimulatory molecules on mBMDCs, mBMDCs (10^6 cells/mL) were incubated with 634 (10 μM), ION (1 μM), and MPLA (1 μg/mL) for 20-24 hours. 0.5% DMSO was used as a vehicle. After removing the supernatant, cells were washed with the stain buffer and incubated with anti-mouse CD16/32 antibody for blocking FcR. Cells were stained with an antibody cocktail with anti-CD86 (A), anti-CD80 (B), anti-MHC class II (C), and anti-CD40 (D) antibodies for 30 minutes at 4° C. Cells were then washed and stained with DAPI (4′,6-diamino-2phenylindole) for 10 minutes at room temperature to exclude dead cells (DAPI^high) from the analysis. Data were acquired using MACSQuant Analyzer 10 (Miltenyi Biotec, Germany) and analyzed with FlowJo (version 10.8.1).\nmBMDCs (10^5 cells/200 μL/well) were treated with a test compound (10 μM) or Veh (0.5% DMSO) overnight and then the costimulatory molecule expression on mBMDCs was evaluated using flow cytometry. The cells were stained with antibodies for CD11c, CD80, CD83, CD86, CD40, and MHC class II. Dead cells (DAPI high) were excluded from the analysis. Percent positive population of CD80, CD83, CD86, CD40, or MHC class II in the gated CD11c population were analyzed.\nCostimulatory Molecule Expression Analysis. mBMDCs (10^6 cells/mL) were incubated with 10 μM compound, 1 μM lonomycin and 1 μg/mL MPLA for 20 to 24 hours. 0.5% DMSO was used as vehicle. Cells were incubated with anti-mouse CD16/32 antibody for blocking FcR and stained with anti-CD11c, anti-CD40, […], anti-CD83, […], or anti-MHC class II antibodies for 30 minutes at 4° C. Cells were stained with 4′,6-diamino-2-phenylindole (DAPI) for 10 minutes at RT. Data were acquired using MACSQuant Analyzer 10 (Miltenyi Biotec, Germany) and analyzed with FlowJo (version 10.8.1, Becton Dickinson, Ashland, OR))."}}, "note": "“Also recorded” adds a separate entry of the source."}
{"smiles": "CCCCCCCC/C=C\\CCCCCCCC(=O)OCC(COP(=O)(O)OCCNC(=O)c1ccc(Cn2c(=O)[nH]c3c(N)nc(OCCOC)nc32)cc1)OC(=O)CCCCCCC/C=C\\CCCCCCCC", "note": "(stereo not drawn) [1V270]", "values": [{"measurement": "lung metastases / tumor cell colonization in the lungs", "setting": "4T1 breast cancer; 4T1 breast cancer models, systemic administration", "value": "inhibited lung metastases; also recorded: inhibited colonization by tumor cells in the lungs"}, {"measurement": "toxic effects", "setting": "4T1 breast cancer; compared to the unconjugated agonist", "value": "minimal toxic effects"}, {"measurement": "lung metastasis after intranasal administration", "setting": "4T1 breast cancer; intranasal administration", "value": "suppressed lung metastasis"}]}
{"smiles": "Cc1ccccc1-c1cncc(-c2nnc(-c3cccc4ccccc34)o2)c1", "note": "[2C183]", "values": [{"measurement": "IL-12 induction", "setting": "mBMDCs [1]", "value": "induced IL-12 in BMDCs"}, {"measurement": "exosome (EV) release in CD63 reporter THP-1 cells", "setting": "[2]", "value": "enhanced exosome release in CD63 reporter THP-1 cells"}]}
{"smiles": "Cc1cccc(-c2cncc(-c3nnc(-c4cccc5ccccc45)o3)c2)c1", "note": "[2C185]", "values": [{"measurement": "IL-12 induction", "setting": "mBMDCs [1]", "value": "enhance exosome release and IL-12 induction; also recorded: induced IL-12 in BMDCs"}, {"measurement": "exosome (EV) release in CD63 reporter THP-1 cells", "setting": "[2]", "value": "enhance exosome release; also recorded: enhanced exosome release in CD63 reporter THP-1 cells"}]}
{"smiles": "C[C@H](CCC(=O)O)C[C@H](C)C[C@H](C)C(=O)/C=C(\\O)[C@H](C)C[C@H](C)C/C=C/[C@@H](C)[C@@H](O)[C@@H](C)[C@@H](O)C[C@@H]1CC[C@@](C)([C@H]2CC[C@@](C)([C@@H](C)O)O2)O1", "note": "[ION, ionomycin, reference compound]", "values": [{"measurement": "CD80 expression on mBMDCs", "setting": "mBMDCs [3]", "value": "increased CD86 and CD80 expression on mBMDCs"}, {"measurement": "CD86 expression on mBMDCs", "setting": "mBMDCs [3]", "value": "increased CD86 and CD80 expression on mBMDCs"}]}
